# Experimental data as given in patent US20150366884A1, “COMPOSITIONS AND METHODS FOR CANCER THERAPY” (UNIVERSITY OF IOWA RESEARCH FOUNDATION, priority 2013, published 2015).
# Read-outs that look alike come from different tables or passages of the source.
# Key:
# melanoma tumor = assay: Treatment of melanoma tumor bearing animals; type: in vivo
# [1] = system: A375 human melanoma cells; assay: MTT viability analysis, TPP chain length and treatment time, A375 cells; conditions: for cytotoxicity at 0.5 µM: Homo sapiens, read-out: decrease in A375 cell viability
# Protocol: (§1) A375 human melanoma (catalog no. CRL1619™) cells were purchased from ATCC®. All cells were cultured in 150 cm^2 culture flasks at 37° C. in a humidified 5% CO2 incubator and detached with 0.25% trypsin-EDTA (GIBCO®, catalog no. 25200). A375 cells were cultured in high glucose DMEM medium (GIBCO®, catalog no. 11965) supplemented with 1% PenStrep (GIBCO®, catalog no. 15140) and 10% FBS (GIBCO®, catalog no. 26140). MeWo cells were cultured in 1:1 DMEM:F12 (VENDOR INFO) medium supplemented with 1% PenStrep and 10% FBS. Melanocytes were cultured in Ham's F10 medium (GIBCO®, catalog no 11550) supplemented with 7% horse serum (Hyclone®, catalog no. SH30074.03) and 50 ng/mL 12-myristate 13-acetate (TPA) (Sigma®, catalog no. P-8139). Experiments were performed with cells at or below passage twenty.
# (§2) MTT viability analysis of melanoma cells versus non-malignant melanocyte cells looking at the effect of variation in TPP molecular chain length and treatment time. A375 human melanoma cells in (A), MeWo human melanoma cells in (B), and non-malignant melanocyte cells in (C) were treated with TPP derivatives at a 0.5 μM concentration for 24 h, 48 h, and 72 h.
# [2] = system: MeWo human melanoma cells; assay: MTT viability analysis, TPP chain length and treatment time, MeWo cells; conditions: for cytotoxicity at 0.5 µM: Homo sapiens, MeWo, read-out: decrease in MeWo cell viability
# Protocol: as §1, §2
# [3] = system: non-malignant melanocyte cells; assay: MTT viability analysis, TPP chain length and treatment time, melanocytes; conditions: 0.5 μM
# Protocol: as §1, §2
smiles,measurement,setting,value
"CCCCCCCCCC[P+](c1ccccc1)(c1ccccc1)c1ccccc1 [decyl-TPP, decyltriphenylphosphonium]",tolerability,melanoma tumor,well-tolerated
same,decrease in A375 cell viability,"[1]; 0.5 μM, 24 h",no significant decrease
same,cytotoxicity at 0.5 µM,"[1]; A-375, 48 h",> 30%
same,cytotoxicity at 0.5 µM,"[1]; A-375, 72 h",> 30%
same,decrease in MeWo cell viability,"[2]; 0.5 μM, 24 h",no significant decrease
same,cytotoxicity at 0.5 µM,[2]; 48 h,> 30%
same,cytotoxicity at 0.5 µM,[2]; 72 h,> 30%
same,decrease in non-malignant melanocyte cell viability,[3]; 24 h,No significant decrease
same,decrease in non-malignant melanocyte cell viability,[3]; 48 h,No significant decrease
same,decrease in melanocyte viability,[3]; 72 h,not observed
